{"source": "patent US20160046573A1", "about": "“IDENTIFYING PATIENT RESPONSE TO S1P RECEPTOR MODULATOR ADMINISTRATION” (Novartis AG, priority 2013, published 2016)", "key": {"CYP2C19": {"target": "T1, CYP2C19 (Homo sapiens, UniProt P33261)", "T1 construct": "purchased BD Biosciences 456259; host or cells: baculovirus infected insect cells (BTI-TN-5B1-4)", "T1 sequence (P33261 whole entry)": "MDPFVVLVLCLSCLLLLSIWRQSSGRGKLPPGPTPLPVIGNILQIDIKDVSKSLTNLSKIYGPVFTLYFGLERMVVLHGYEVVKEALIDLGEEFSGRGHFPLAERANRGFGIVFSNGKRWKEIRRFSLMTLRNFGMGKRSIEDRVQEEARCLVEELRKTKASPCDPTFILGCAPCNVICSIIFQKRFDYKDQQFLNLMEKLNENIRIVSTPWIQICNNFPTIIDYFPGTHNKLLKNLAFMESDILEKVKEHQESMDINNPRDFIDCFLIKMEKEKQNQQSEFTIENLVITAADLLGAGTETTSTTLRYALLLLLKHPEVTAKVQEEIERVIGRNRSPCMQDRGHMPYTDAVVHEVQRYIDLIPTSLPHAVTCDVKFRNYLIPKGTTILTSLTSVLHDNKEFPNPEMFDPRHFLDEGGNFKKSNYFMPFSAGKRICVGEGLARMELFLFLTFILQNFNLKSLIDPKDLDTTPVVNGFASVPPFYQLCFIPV", "experiment": "Enzyme mapping: metabolite formation by recombinant P450 isoenzyme", "format": "in vitro ADME", "conditions": "for Metabolism Rate: 30 pmol/mL, 30 min", "experimental": "(§1) Microsomes prepared from baculovirus infected insect cells (BTI-TN-5B1-4) expressing the following human P450 enzymes and the insect cell membrane preparations (negative control) were obtained from BD Biosciences (Woburn, Mass., USA).\n(§2) The final concentrations are given in parentheses.\n(§3) After 30 min at −80° C. […] The supernatant was withdrawn. […] Sample solutions were analyzed by HPLC combined with radiodetection. (for HLPC method, see Section 1.6)\n(§4) Mean specific CYP enzyme concentrations in human liver microsomes were obtained from literature values (Rowland Yeo K, Rostami-Hodjegan A and Trucker GT (2004)] Abundance of cytochromes P450 in human liver: a meta-analysis. Br. J. Clinical Pharmacology; 57:687-688). For some recombinant human CYPs, the enzyme kinetic parameters were estimated by calculation assuming Michaelis-Menten type behavior for the two concentrations used, solving a linear equation system for 2 linear equations with 2 variables: […]\n(§5) Microsomes prepared from baculovirus infected insect cells (BTI-TN-5B1-4) expressing one single human cytochrome P450 isoenzyme were used to assess the involvement of specific enzymes in the biotransformation of [14C]BAF312. Incubation experiments with a panel of 21 recombinant human CYPs (CYP1A1, 1A2, 1B1, 2A6, 2B6, 2C8, 2C9*1, 2C18, 2C19, 2D6*1, 2E1, 2J2, 3A4, 3A5, 3A7, 4A11, 4F2, 4F3A, 4F3B, 4F12 and CYP19) were conducted under similar conditions for each isoenzyme with 10 and 40 μM BAF312 incubation and 30 pmol CYP/mL for 30 min. […] Lower metabolism activities were also observed in incubation with CYP3A4, while some trace metabolism was detected with other CYP isoenzymes (2B6, 2C8, 2C19, 2J2, 3A5, 1A1)."}, "CYP2J2": {"target": "T2, CYP2J2 (Homo sapiens, UniProt P51589)", "T2 construct": "purchased BD Biosciences 456264; host or cells: baculovirus infected insect cells (BTI-TN-5B1-4)", "T2 sequence (P51589 1-502)": "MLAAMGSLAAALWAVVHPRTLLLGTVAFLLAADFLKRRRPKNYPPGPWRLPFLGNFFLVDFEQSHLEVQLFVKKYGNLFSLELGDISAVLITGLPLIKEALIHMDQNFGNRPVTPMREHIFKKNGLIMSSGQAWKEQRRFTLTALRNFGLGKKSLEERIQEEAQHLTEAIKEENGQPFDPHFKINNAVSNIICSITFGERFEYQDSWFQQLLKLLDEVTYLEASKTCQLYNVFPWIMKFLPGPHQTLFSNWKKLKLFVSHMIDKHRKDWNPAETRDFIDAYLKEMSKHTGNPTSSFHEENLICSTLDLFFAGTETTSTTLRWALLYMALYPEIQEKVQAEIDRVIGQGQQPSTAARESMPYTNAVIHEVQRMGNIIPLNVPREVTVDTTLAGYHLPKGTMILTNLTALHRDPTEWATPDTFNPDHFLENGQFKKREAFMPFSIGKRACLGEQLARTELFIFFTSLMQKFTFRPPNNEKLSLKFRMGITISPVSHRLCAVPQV", "experiment": "Enzyme mapping: metabolite formation by recombinant P450 isoenzyme", "format": "in vitro ADME", "conditions": "30 pmol/mL, 30 min", "experimental": "as §1, §2, §3, §4, §5"}, "CYP1A1": {"target": "T3, CYP1A1 (Homo sapiens, UniProt P04798)", "T3 construct": "purchased BD Biosciences 456211; host or cells: baculovirus infected insect cells (BTI-TN-5B1-4)", "T3 sequence (P04798 1-512)": "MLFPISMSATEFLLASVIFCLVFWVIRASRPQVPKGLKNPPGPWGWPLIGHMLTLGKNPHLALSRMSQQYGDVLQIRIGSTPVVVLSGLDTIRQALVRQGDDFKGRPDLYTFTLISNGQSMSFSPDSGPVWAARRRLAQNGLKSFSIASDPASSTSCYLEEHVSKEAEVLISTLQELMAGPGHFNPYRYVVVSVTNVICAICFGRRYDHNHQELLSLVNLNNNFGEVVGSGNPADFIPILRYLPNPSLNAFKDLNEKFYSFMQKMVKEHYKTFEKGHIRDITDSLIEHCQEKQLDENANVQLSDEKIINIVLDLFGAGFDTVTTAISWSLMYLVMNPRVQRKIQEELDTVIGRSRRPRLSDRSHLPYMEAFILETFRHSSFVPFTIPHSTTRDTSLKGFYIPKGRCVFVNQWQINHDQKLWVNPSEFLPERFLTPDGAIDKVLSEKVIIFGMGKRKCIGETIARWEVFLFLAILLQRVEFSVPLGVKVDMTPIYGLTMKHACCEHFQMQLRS", "experiment": "Enzyme mapping: metabolite formation by recombinant P450 isoenzyme", "format": "in vitro ADME", "conditions": "30 pmol/mL, 30 min", "experimental": "as §1, §2, §3, §4, §5"}, "[1]": {"experiment": "Enzyme mapping: metabolite formation by HLM pool", "format": "in vitro ADME, human", "conditions": "HLM 108 pmol/mL, 30 min", "experimental": "A pool of liver microsomes prepared from 47 individual donors was obtained from BD Biosciences (Woburn, Mass., USA, catalog N^o 452161, Lot 26). Pathogenicity testing of each of the livers in the pool was performed using a PCR protocol. […] The total P450 content was 360 pmol/mg protein. […]\nAfter 30 min at −80° C. […] Sample solutions were analyzed by HPLC combined with radiodetection. […]\nMicrosomes prepared from baculovirus infected insect cells (BTI-TN-5B1-4) expressing one single human cytochrome P450 isoenzyme were used to assess the involvement of specific enzymes in the biotransformation of [14C]BAF312. […] Lower metabolism activities were also observed in incubation with CYP3A4, while some trace metabolism was detected with other CYP isoenzymes (2B6, 2C8, 2C19, 2J2, 3A5, 1A1)."}}, "data": [{"smiles": "CCc1cc(/C(C)=N/OCc2ccc(C3CCCCC3)c(C(F)(F)F)c2)ccc1CN1CC(C(=O)O)C1", "note": "[BAF312, 1-{4-[1-(4-cyclohexyl-3-trifluoromethyl-benzyloxyimino)-ethyl]-2-ethyl-benzyl}-azetidine-3-carboxylic acid]", "values": [{"measurement": "Metabolism Rate", "setting": "CYP2C19; 10 μM BAF312", "result": 6.7, "unit": "pmol/min/nmol CYP 450"}, {"measurement": "Metabolism Rate", "setting": "CYP2C19; 40 μM BAF312", "result": 22.2, "unit": "pmol/min/nmol CYP 450"}, {"measurement": "Contribution (% total Rel. CL)", "setting": "CYP2C19; CYP 2C19, metabolic clearance in human liver microsomes", "result": 0.1, "unit": "%"}, {"measurement": "Rel. CL", "setting": "CYP2C19; CYP 2C19, relative to abundance in human liver microsomes", "result": "0.02 μl/(min · nmol total CYP)"}, {"measurement": "Metabolism Rate", "setting": "CYP2J2; 10 μM BAF312", "result": 2.8, "unit": "pmol/min/nmol CYP 450"}, {"measurement": "Metabolism Rate", "setting": "CYP2J2; 40 μM BAF312", "result": 8.9, "unit": "pmol/min/nmol CYP 450"}, {"measurement": "Metabolism Rate", "setting": "CYP1A1; 10 μM BAF312", "result": 13.3, "unit": "pmol/min/nmol CYP 450"}, {"measurement": "Metabolism Rate", "setting": "CYP1A1; 40 μM BAF312", "result": 28.9, "unit": "pmol/min/nmol CYP 450"}, {"measurement": "Metabolism Rate", "setting": "[1]; 10 μM BAF312", "result": 5.9, "unit": "pmol/min/nmol CYP 450"}, {"measurement": "Metabolism Rate", "setting": "[1]; 40 μM BAF312", "result": 25.3, "unit": "pmol/min/nmol CYP 450"}]}]}
